# According to patent publication US12528790B2, “Amide derivative having antiviral activity” (Shionogi & Co., Ltd., priority 2020, dated 2026):
# Like-named read-outs stand apart in the source and are kept apart here.
# Experiments:
# RSV A2 strain = assay: In vitro CPE (CytoPathic Effect) inhibition effect evaluation test, RSV type A; assay type: cell-based
# Outline: (§1)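 HEp-2 cells (2.4×10^5 cells/mL, 2% FBS E-MEM) were infected with RSV alongside 3-fold compound dilutions and incubated at 37 °C, 4 days for A2 and 5 days for B Wash/18537. Viable cells quantified by CellTiter-Glo 2.0 luminescence; EC50 by nonlinear regression as 50% CPE inhibition.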
# [1] = tested on: RSV B (Wash/18537 strain); assay: In vitro CPE (CytoPathic Effect) inhibition effect evaluation test, RSV type B; assay type: cell-based
# Outline: as §1
# [2] = human respiratory syncytial virus, inhibitory effect against RSV type A (RSV A2 strain), HEp-2 cells, CPE inhibition, read-out: EC50
# [3] = human respiratory syncytial virus, inhibitory effect against RSV type B, CPE inhibition, read-out: EC50
# [4] = human respiratory syncytial virus, HEp-2, 96 h, read-out: EC50, inhibitory effect against RSV type A (CPE inhibition)
# [5] = human respiratory syncytial virus, HEp-2, 120 h, HEp-2 cells, RSV B (Wash/18537 strain), 5 days, CellTiter-Glo, read-out: EC50, inhibitory effect against RSV type B (CPE inhibition)
Compound,EC50 (RSV A2 strain; [2]) [µM],"EC50 [1, 3] [µM]",also measured
N#Cc1cc(C(=O)NC2(C(=O)O)C3CC4CC(C3)CC2C4)c(C(F)(F)F)nc1N1CC2(CCOCC2)c2cc(OC3CCN(c4ncccn4)CC3)ccc21 (stereo not drawn) [Compound I-276],< 0.01,< 0.01,–
O=C(NC1(C(=O)O)C2CC3CC(C2)CC1C3)c1cnc(N2CC3(CCOCC3)c3cc(OC4CCS(=O)(=O)CC4)ccc32)nc1C(F)(F)F (stereo not drawn) [Compound I-203],< 0.01,< 0.01,–
CC(F)(F)c1nc(N2CC3(CCCCC3)c3cc(OC4CCN(c5nnc(C(F)(F)F)s5)CC4)ccc32)ncc1C(=O)NC1(C(=O)O)C2CC3CC(C2)CC1C3 (stereo not drawn) [Compound I-535],< 0.01,0.01 to 0.1,–
CC(F)(F)CN1CCC(Oc2ccc3c(-c4ncc(C(=O)NC5(C(=O)O)C6CC7CC(C6)CC5C7)c(C(F)(F)F)n4)cn(C4CC4)c3c2)CC1 (stereo not drawn) [Compound I-544],< 0.01,0.01 to 0.1,–
O=C(NC1(C(=O)O)C2CC3CC(C2)CC1C3)c1cnc(N2CC3(CCCCC3)c3cc(-n4ncc5c4CCN(CC(F)(F)F)C5)ccc32)nc1C(F)(F)F (stereo not drawn) [Compound I-606],< 0.01,< 0.01,–
O=C(NC1(C(=O)O)C2CC3CC(C2)CC1C3)c1ccc(-c2cn(C3CCC(F)(F)CC3)c3c(F)c(OC4CCN(c5ncccn5)CC4)ccc23)nc1C(F)(F)F (stereo not drawn) [Compound I-227],< 0.01,< 0.01,–
O=C(NC1(C(=O)O)C2CC3CC(C2)CC1C3)c1cnc(N2CC(C3CCCC3)c3cc(OC4CCN(c5ncc(F)cn5)CC4)ccc32)nc1C(F)(F)F (racemic) [Compound I-486],–,–,"EC50 (RSV A2 strain; [4]): 0.003 µM; EC50 [1, 5]: 0.028 µM"
O=C(NC1(C(=O)O)C2CC3CC(C2)CC1C3)c1cnc(N2CC3(CCCCC3)c3cc(O[C@H]4CC[C@H](N5CC(F)(F)C5)CC4)ncc32)nc1C(F)(F)F (stereo partly drawn) [Compound I-595],< 0.01,< 0.01,–
COc1cnc(N2CCC(Oc3ccc4c(c3)C3(CCCCC3)CN4c3ncc(C(=O)NC4(C(=O)O)C5CC6CC(C5)CC4C6)c(C(F)(F)F)n3)CC2)cn1 (stereo not drawn) [Compound I-537],< 0.01,0.01 to 0.1,–
CC(F)(F)CN1CCC(Oc2ccc3c(-c4ncc(C(=O)NC5(C(=O)O)C6CC7CC(C6)CC5C7)c(C(F)(F)F)n4)cn(C4CCOCC4)c3c2)CC1 (stereo not drawn) [Compound I-578],< 0.01,< 0.01,–
O=C(NC1(C(=O)O)C2CC3CC(C2)CC1C3)c1cnc(N2CC3(CCOCC3)c3cc(OC4CCN(C5CC5)CC4)ccc32)nc1C(F)(F)F (stereo not drawn) [Compound I-92],–,–,"EC50 (RSV A2 strain; inhibitory effect against RSV type A (RSV A2 strain), HEp-2 cells, CPE inhibition, read-out: EC50): < 0.01 µM; EC50 ([1]; inhibitory effect against RSV type B, CPE inhibition, read-out: EC50): < 0.01 µM"
CC(F)(F)c1nc(N2CC3(CCCCC3)c3cc(C(=O)N4CCN(CC(F)(F)F)CC4)ccc32)ncc1C(=O)NC1(C(=O)O)C2CC3CC(C2)CC1C3 (stereo not drawn) [Compound I-608],< 0.01,< 0.01,–
COC[C@@H](C)n1cc(-c2ncc(C(=O)NC3(C(=O)O)C4CC5CC(C4)CC3C5)c(C(C)(F)F)n2)c2ccc(OC3CC(N4CC(F)(F)C4)C3)cc21 (stereo partly drawn) [Compound I-620],< 0.01,< 0.01,–
CC(C)n1cc(-c2ncc(C(=O)NC3(C(=O)O)C4CC5CC(C4)CC3C5)c(C(C)(F)F)n2)c2ccc(O[C@H]3CC[C@H](N4CC(F)(F)C4)CC3)cc21 (stereo partly drawn) [Compound I-618],< 0.01,< 0.01,–
O=C(NC1(C(=O)O)C2CC3CC(C2)CC1C3)c1cnc(N2CC3(CCCCC3)c3cc(OC4CN(CC(F)(F)F)C4)ccc32)nc1C(F)(F)F (stereo not drawn) [Compound I-495],< 0.01,< 0.01,–
CC(F)(F)c1nc(N2CC3(CCCCC3)c3cc(OC4CCC5(CC4)CN(CC(F)(F)F)C5)ccc32)ncc1C(=O)NC1(C(=O)O)C2CC3CC(C2)CC1C3 (stereo not drawn) [Compound I-550],< 0.01,0.01 to 0.1,–
CC(F)(F)c1nc(N2CC3(CCOCC3)c3cc(OC4CCN(C5CS(=O)(=O)C5)CC4)ccc32)ncc1C(=O)NC1(C(=O)O)C2CC3CC(C2)CC1C3 (stereo not drawn) [Compound I-593],< 0.01,< 0.01,–
O=C(NC1(C(=O)O)C2CC3CC(C2)CC1C3)c1cnc(-c2cn(C3CCC(F)(F)CC3)c3cc(-n4ncc5c4CCN(CC(F)(F)F)C5)ccc23)nc1C(F)(F)F (stereo not drawn) [Compound I-573],< 0.01,< 0.01,–
O=C(NC1(C(=O)O)C2CC3CC(C2)CC1C3)c1cnc(N2CC3(CCOC3)c3cc(OC4CCN(CC(F)(F)F)CC4)ccc32)nc1C(F)(F)F (racemic) [Compound I-467],< 0.01,< 0.01,–
O=C(NC1(C(=O)O)C2CC3CC(C2)CC1C3)c1cnc(-c2cn(C3CCC(F)(F)CC3)c3nc(OC4CCN(c5ncccn5)CC4)ccc23)nc1C(F)(F)F (stereo not drawn) [Compound I-228],–,–,"EC50 (RSV A2 strain; [4]): 0.0013 µM; EC50 [1, 5]: 0.036 µM"
O=C(NC1(C(=O)O)C2CC3CC(C2)CC1C3)c1cnc(N2CC3(CCCCC3)c3cc(OC4CCC5(CC4)COC5)ccc32)nc1C(F)(F)F (stereo not drawn) [Compound I-399],< 0.01,0.01 to 0.1,–
